Measured values: patent US20260263551A1, “TREATING CONDITIONS WITH HYPOGLYCEMIA ASSOCIATED WITH HYPERINSULINEMIA” (RESILIUN B.V., priority 2022, published 2026)
Where a SMILES comes first, the peptide text is derived from it.

Key:
[1] = system: mTOR; conditions: piglets; cited from earlier work
[2] = system: human pulmonary microvascular endothelial cells (Hpmec); assay: Microvascular angiogenesis (sprouting) assay in Matrigel; assay type: cell-based; conditions: t=16, 24 and 40h (P=0.48, 0.011 and 0.032)
From the text: Microvascular angiogenesis assay of human pulmonary microvascular endothelial cells grown in Matrigel as determinant of ERC-reactivity and in response to increasing concentrations of GXXP-peptides 3, 6 and 8, (VGVAPGVGVAPGVGVAPG, QVGQVELGGGPGAGSLQP and GAYPGAPGAYPGAPAPGV, taken from the exon 24 region of human elastin, from the mid-portion of human C-peptide, and from the N-terminal portion of human Galectin-3, FIGS. 4a, 4b and 4c, respectively). Data shown are total tube length measurements and total branch length measurements at t=24 h. * p<0.05; ** p<0.01; *** p<0.001. At 4 h no angiogenic activity of the various peptides was as yet observed.
As measuring insulin resistance in vitro is a cumbersome feat, the effect of three elastin fragment peptides and related GXXP-peptides on endothelial cell sprouting were assessed instead. Endothelial cells (Hpmec, n=4) were serum starved for 24 hours, trypsinised and seeded in growth factor-reduced Matrigel. […] Sprouting by means of mean total tube length and mean total branch length per field of view were quantified with ImageJ software. […]
Pictures were analyzed using the plug-in angiogenesis analyzer in ImageJ. […]

[3] = system: Na+, K+-ATPase; conditions: cited from earlier work
[4] = in vivo; cited from earlier work
[5] = system: Na+, K+-ATPase; conditions: rat renal tubular segments; peptides tested at 5×10^-7 mol/l; cited from earlier work
[6] = system: Na+, K+-ATPase; conditions: purified preparation of Na+,K+-ATPase; cited from earlier work
[7] = system: fibroblasts and monocytes; conditions: cited from earlier work
[8] = system: human skin fibroblast; conditions: cited from earlier work
[9] = single infusion, healthy adults; cited from earlier work
[10] = infants >2 years of age; cited from earlier work

For `C[C@H](N)C(=O)N[C@@H](CCC(N)=O)C(=O)O` [AQ, Alanyl-glutamine] (H-Ala-Gln-OH), the “autophagy / mTOR modulation” value [1] is listed as “autophagy-inhibition”.

With `CC(=O)N[C@H]1[C@H]([C@H](O)[C@H](O)CO)OC(C(=O)O)=C[C@@H]1O` [DANA, 2,3-dehydro-2-deoxy-N-acetylneuraminic acid] the “effect on the angiogenic effects of peptide 3” value [2] was “significantly potentiated”.

For `CN(C)CCCn1cc(C2=C(c3c[nH]c4ccccc34)C(=O)NC2=O)c2ccccc21` [G F109203X], the “effect on C-peptide stimulation of 86Rb+ uptake” value ([3]; 1 μM preincubation, PKC inhibitor) is listed as “abolished”.

In the case of `COc1cccc(-c2cc(=O)c3ccccc3o2)c1N` [PD98059], the “effect on C-peptide-stimulated Na+,K+-ATPase activation, α1-subunit phosphorylation and translocation to BLM” value ([3]; 20 μM, MEK1/2 inhibitor) is given as “abolished”.

In the case of `C[C@@H](O)[C@@H]1NC(=O)[C@H](CCCCN)NC(=O)[C@@H](Cc2c[nH]c3ccccc23)NC(=O)[C@H](Cc2ccccc2)NC(=O)[C@@H](NC(=O)[C@H](N)Cc2ccccc2)CSSC[C@@H](C(=O)N[C@H](CO)[C@@H](C)O)NC1=O` [octreotide], the half-life [4] is given as “around 100 min”.

For EGSLQ, the “activity relative to intact C-peptide” value [5] is given as 75% and the “activity relative to the intact molecule” value ([3]; HRTCs) is given as 57%.

For “ELGGGPEAG [PG-domain peptide of rat C-peptide 1]”, the “direct activation of isolated ATPase” value [6] is listed as “No measurable activation”.

In the case of EVARQ, the “activity relative to intact C-peptide” value [5] is listed as 100% and the “direct activation of isolated ATPase” value [6] is listed as “No measurable activation”.

In the case of “VGVAPG [Chemotactic Domain of Elastin, Bachem product number 4010536]”, the chemotactic activity [7] is listed as “chemotactic for fibroblasts and monocytes” and the fibroblast proliferation [8] is listed as “stimulated human skin fibroblast proliferation”.

In the case of “human C-peptide: cleavage product of the proinsulin molecule (RREAEDLQVGQVELGGGPGAGSLQPLALEGSLQKR)”, the “stimulation of 86Rb+ uptake” value ([3]; 5 nM, 37° C., 10 min, HRTCs) is listed as 40%.

B1: XOMA 358: antibody XOMA 358 (aka RZ358), monoclonal antibody given by infusion (antibody, chains of the INN, looked up, V domains shown)
VH: EVQLVETGGGVVQPGRSLRLSCAASGFTFSSYAMHWVRQAPGKGLEWYAVISYDGSNKYYADSVKGRFTISRDNSKNTLYLQMNSLRAEDTAVYYCARHEWGFGMDVWGQGTTVTVSS
VL: DVVMTQSPLSLSVTLGQPASISCRSSLSLVYGDENTYLNWFQQRPGQSPRRLLYKVSDRDSGVPDRFSGSGSGTDFTLKISRVEADDVGVYYCMQGTHWPYTFGQGTKLEIK
In the case of B1, the insulin sensitivity [9] is listed as “dose-dependent reduction in insulin sensitivity” and the hypoglycemia [10] is listed as “reduction of hypoglycemia”.
